Source: PubChem BioAssay AID1963846 (Molecular Pharmacology Branch, DTP, NCI, 2024)

Test system: 454973-116-R2-J3-PDC complex spheroid viability
Experiment: Anticancer human tumor 454973-116-R2-J3-PDC patient-derived pancreatic carcinoma cell line growth inhibition [POLQ]
Details: for IC50: curve of first compound; for viability, T/C: stronger effect = lower value
Procedure: Multicellular complex tumor spheroid response to Polymerase (POL) inhibitors (novobiocin, ART-558, RP6685) in combination with a variety of drugs and investigational agents in selected tumor cell lines
The POL inhibitors (novobiocin, ART-558, and RP6685) were evaluated both individually and in combination with standard of care and investigational anticancer small molecules within a complex spheroid model of solid tumors. . Complex spheroids include a stromal component modeled by human endothelial cells (HUVEC) and fibroblasts modeled by human mesenchymal stem cells (MSCs). The concentration ranges selected for each drug and investigational agent were based upon clinically achievable concentrations if the clinical Cmax of the agent was known.
Compounds. The drugs and investigational agents: novobiocin (NSC847541), ART-558 (NSC835418), RP-6685 (NSC848927), peposertib (NSC802822), ceralasertib (NSC780249), elimusertib (NSC800525), camonsertib (NSC841442), AZD-1390 (NSC803789), olaparib (NSC753686), talazoparib (NSC767125), rucaparib (NSC756644), sotorasib (NSC818433), MRTX-1133 (NSC836407), SN-38 (NSC673596), topotecan (NSC609699), epotoside (NSC141540), doxorubicin (NSC123127), gemcitabine (NSC613327), 5-fluorouracil (NSC19893), paclitaxel (NSC125973), vemurafenib (NSC761431), MSA-2 (NSC828583), SN-011 (NSC837082), adavosertib (NSC754352), prexasertib (NSC758257), carboplatin (NSC241240) and oxaliplatin (NSC266046), were obtained from the National Cancer Institute (NCI) Developmental Therapeutics Program Chemical Repository (21). The FDA-approved anticancer drug set is available from the Developmental Therapeutics Program at https://dtp.cancer.gov/organization/dscb/obtaining/. […] The stock solutions were prepared in dimethyl sulfoxide (DMSO, Sigma-Aldrich, St. Louis, MO, cat. D2650), except for the platinum compounds which were prepared in saline (Quality Biological, Gaithersburg, MD, cat. 114-055-101), at 800-fold the tested concentration and stored at -70 degrees C prior to their use. All drugs and investigational agents were tested over a range starting from a high concentration at or near the clinical Cmax and decreasing in half-log increments. If the clinical Cmax for an agent had not been determined, the highest concentration tested was 10 microM, except for SN-38, which was tested at a high concentration of 1 microM.
Cell Culture. All cells were maintained in an incubator at 37 degrees C and 5% CO2 with 95% humidity. The PDC lines were cultured according to standard operating procedures established by the NCI PDMR (https://pdmr.cancer.gov). Table 3 of the manuscript, lists the cell lines along with the number of the three cell types plated to form the mct-spheroids and media for tumor cell growth. After thawing, all PDC lines, except 997537-175-T-J1-PDC and 415267-285-R-J2-PDC, were cultured in Matrigel-coated flasks prepared with a working solution of 1X Ham's F-12 nutrient mix, without supplementation (Thermo Fisher Scientific, cat. 11765054), 100 U/mL penicillin-streptomycin (Thermo Fisher Scientific, cat. 15140122), and 2.5% Matrigel (Corning Inc., Corning, NY, cat. 354248) for the first three passages. The two PDC lines 997537-175-T-J1-PDC and 415267-285-R-J2-PDC were cultured on uncoated flasks. The 857933-349-R-J2-PDC line was cultured in 6C/Colon 1B media containing advanced DMEM/F-12 (Thermo Fisher Scientific, cat. 12634028), 10 mM HEPES (Thermo Fisher Scientific, cat. 15630080), 1X GlutaMAX supplement (Thermo Fisher Scientific, cat. 35050061), 0.1 mg/mL primocin (InvivoGen, San Diego, CA, cat. ant-pm-2), 10% defined fetal bovine serum, heat inactivated (HyClone Laboratories Inc., Logan, UT, cat. SH30070.03HI), 50% L-WRN conditioned media (ATCC, cat. CRL-3276), 1.25 mM N-Acetyl-L-cysteine (Sigma-Aldrich, cat. A9165), 10 mM nicotinamide (Sigma-Aldrich, cat. N0636), 1X B-27 supplement (Thermo Fisher Scientific, cat. 17504044), 1X N-2 supplement (Thermo Fisher Scientific, cat. […]

[1] = second compound 0.0316 µM, first compound 0.0316 µM
[2] = second compound 0.0316 µM, first compound 0.1 µM
[3] = second compound 0.0316 µM, first compound 0.316 µM
[4] = second compound 0.0316 µM, first compound 1 µM
[5] = second compound 0.0316 µM, first compound 3.16 µM
[6] = second compound 0.0316 µM, first compound 10 µM
[7] = second compound 0.1 µM, first compound 0.0316 µM
[8] = second compound 0.1 µM, first compound 0.1 µM
[9] = second compound 0.1 µM, first compound 0.316 µM
[10] = second compound 0.1 µM, first compound 1 µM
[11] = second compound 0.1 µM, first compound 3.16 µM
[12] = second compound 0.1 µM, first compound 10 µM
[13] = second compound 0.316 µM, first compound 0.0316 µM
[14] = second compound 0.316 µM, first compound 0.1 µM
[15] = second compound 0.316 µM, first compound 0.316 µM
[16] = second compound 0.316 µM, first compound 1 µM
[17] = second compound 0.316 µM, first compound 3.16 µM
[18] = second compound 0.316 µM, first compound 10 µM
[19] = second compound 1 µM, first compound 0.0316 µM
[20] = second compound 1 µM, first compound 0.1 µM
[21] = second compound 1 µM, first compound 0.316 µM
[22] = second compound 1 µM, first compound 1 µM
[23] = second compound 1 µM, first compound 3.16 µM
[24] = second compound 1 µM, first compound 10 µM
[25] = second compound 3.16 µM, first compound 0.0316 µM
[26] = second compound 3.16 µM, first compound 0.1 µM
[27] = second compound 3.16 µM, first compound 0.316 µM
[28] = second compound 3.16 µM, first compound 1 µM
[29] = second compound 3.16 µM, first compound 3.16 µM
[30] = second compound 3.16 µM, first compound 10 µM
[31] = second compound 10 µM, first compound 0.0316 µM
[32] = second compound 10 µM, first compound 0.1 µM
[33] = second compound 10 µM, first compound 0.316 µM
[34] = second compound 10 µM, first compound 1 µM
[35] = second compound 10 µM, first compound 3.16 µM
[36] = second compound 10 µM, first compound 10 µM
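Note: spheroids exposed to drugs for seven days before measurement.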
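Throughout, for viability, T/C: percent viability relative to DMSO vehicle control wells taken as 100%.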

CC1COCCN1c1cc(-c2ccnn2C)c2ccnc(-c3ccn[nH]3)c2n1 (stereo unspecified) + COC1C(OC(N)=O)C(O)C(Oc2ccc3c(O)c(NC(=O)c4ccc(O)c(CC=C(C)C)c4)c(=O)oc3c2C)OC1(C)C
IC50 (second compound 0.0316 µM): 205 nM
IC50 (second compound 0.1 µM): 217 nM
IC50 (second compound 0.316 µM): 209 nM
IC50 (second compound 1 µM): 220 nM
IC50 (second compound 3.16 µM): 223 nM
IC50 (second compound 10 µM): 198 nM
viability, T/C [1]: 97%
viability, T/C [2]: 71.8%
viability, T/C [3]: 38.5%
viability, T/C [4]: 19.2%
viability, T/C [5]: 22.8%
viability, T/C [6]: 25.9%
viability, T/C [7]: 97.3%
viability, T/C [8]: 75.7%
viability, T/C [9]: 38%
viability, T/C [10]: 21.9%
viability, T/C [11]: 20.1%
viability, T/C [12]: 23.9%
viability, T/C [13]: 97.8%
viability, T/C [14]: 77.2%
viability, T/C [15]: 35.4%
viability, T/C [16]: 21.2%
viability, T/C [17]: 23.2%
viability, T/C [18]: 29.6%
viability, T/C [19]: 103%
viability, T/C [20]: 79%
viability, T/C [21]: 37.8%
viability, T/C [22]: 18.8%
viability, T/C [23]: 23.2%
viability, T/C [24]: 26.6%
viability, T/C [25]: 100%
viability, T/C [26]: 77.9%
viability, T/C [27]: 39%
viability, T/C [28]: 20.4%
viability, T/C [29]: 26.1%
viability, T/C [30]: 27.9%
viability, T/C [31]: 105%
viability, T/C [32]: 70.8%
viability, T/C [33]: 38%
viability, T/C [34]: 16.7%
viability, T/C [35]: 25.9%
viability, T/C [36]: 33.7%

COc1cc2cc(C(=O)CCC(=O)O)sc2cc1OC + COC1C(OC(N)=O)C(O)C(Oc2ccc3c(O)c(NC(=O)c4ccc(O)c(CC=C(C)C)c4)c(=O)oc3c2C)OC1(C)C
IC50 (second compound 0.0316 µM): > 10000 nM
IC50 (second compound 0.1 µM): > 10000 nM
IC50 (second compound 0.316 µM): > 10000 nM
IC50 (second compound 1 µM): > 10000 nM
IC50 (second compound 3.16 µM): > 10000 nM
IC50 (second compound 10 µM): > 10000 nM
viability, T/C [1]: 95.3%
viability, T/C [2]: 100%
viability, T/C [3]: 102%
viability, T/C [4]: 121%
viability, T/C [5]: 113%
viability, T/C [6]: 96%
viability, T/C [7]: 101%
viability, T/C [8]: 115%
viability, T/C [9]: 99.3%
viability, T/C [10]: 118%
viability, T/C [11]: 111%
viability, T/C [12]: 102%
viability, T/C [13]: 109%
viability, T/C [14]: 110%
viability, T/C [15]: 120%
viability, T/C [16]: 110%
viability, T/C [17]: 104%
viability, T/C [18]: 97.2%
viability, T/C [19]: 107%
viability, T/C [20]: 102%
viability, T/C [21]: 127%
viability, T/C [22]: 110%
viability, T/C [23]: 107%
viability, T/C [24]: 93.8%
viability, T/C [25]: 110%
viability, T/C [26]: 103%
viability, T/C [27]: 105%
viability, T/C [28]: 112%
viability, T/C [29]: 105%
viability, T/C [30]: 93%
viability, T/C [31]: 114%
viability, T/C [32]: 102%
viability, T/C [33]: 93.6%
viability, T/C [34]: 100%
viability, T/C [35]: 99.4%
viability, T/C [36]: 90.5%

COc1cc(C2c3cc4c(cc3C(OC3OC5COC(C)OC5C(O)C3O)C3COC(=O)C23)OCO4)cc(OC)c1O (stereo unspecified) + Cc1cccc(N(C)C(=O)C2C(O)CCN2c2nc(C)cc(C(F)(F)F)c2C#N)c1
IC50 (second compound 0.0316 µM): 1500 nM
IC50 (second compound 0.1 µM): 1520 nM
IC50 (second compound 0.316 µM): 1360 nM
IC50 (second compound 1 µM): 1300 nM
IC50 (second compound 3.16 µM): 1070 nM
IC50 (second compound 10 µM): 886 nM
viability, T/C [1]: 97.9%
viability, T/C [2]: 108%
viability, T/C [3]: 87.6%
viability, T/C [4]: 66.1%
viability, T/C [5]: 23.4%
viability, T/C [6]: 10.1%
viability, T/C [7]: 102%
viability, T/C [8]: 99.5%
viability, T/C [9]: 89.6%
viability, T/C [10]: 65.8%
viability, T/C [11]: 24%
viability, T/C [12]: 11.7%
viability, T/C [13]: 101%
viability, T/C [14]: 102%
viability, T/C [15]: 87.7%
viability, T/C [16]: 61.5%
viability, T/C [17]: 21.8%
viability, T/C [18]: 9.93%
viability, T/C [19]: 111%
viability, T/C [20]: 104%
viability, T/C [21]: 88.3%
viability, T/C [22]: 60.6%
viability, T/C [23]: 21.1%
viability, T/C [24]: 11.1%
viability, T/C [25]: 106%
viability, T/C [26]: 92.9%
viability, T/C [27]: 82.1%
viability, T/C [28]: 52.5%
viability, T/C [29]: 23.1%
viability, T/C [30]: 13.2%
viability, T/C [31]: 111%
viability, T/C [32]: 105%
viability, T/C [33]: 78.5%
viability, T/C [34]: 47%
viability, T/C [35]: 21.7%
viability, T/C [36]: 10.5%
